According to patent publication US20220162215A1, “COMPOSITIONS AND METHODS OF USING THE SAME FOR TREATMENT OF NEURODEGENERATIVE AND MITOCHONDRIAL DISEASE” (MITOKININ, INC., priority 2019, published 2022):
Where two headings read alike, the source gives them in different places.

Tests used:
HeLa MKYP cells [1] = assay: Human mitophagy assay (HeLa MKYP, mtKeima FACS, FCCP/oligomycin); format: cell-based; settings: for EC50 / activation at 6.3 µM / activation at 1.6 µM: Homo sapiens, HeLa; for Potency at 1 μM F/O toxin: Table 1; for Potency at 1 μM F/O toxin / activation at 6.3 µM: % activation of mitophagy at 6.3 μM treatment of the compound; for activation at 6.3 µM / activation at 1.6 µM: 6 h, read-out: Potency at 1 μM F/O toxin*
Experimental: Briefly, HeLa MKYP cells were plated at 10,000 cells/well in 96 well plates along with compounds at various concentrations. Following 16 hrs of incubation, cells were treated with 1 uM FCCP/oligomycin for 6 hours, then analyzed via FACS for the presence of mitochondria in lysosomes (as determined by an emissions spectrum shift from the pH-sensitive mtKeima tag). Examples are shown in FIG. 1 through FIG. 13 below.

HeLa MKYP cells [2] = assay: Toxicity / cell death measured by DAPI staining (take-up); format: cell-based; settings: for Toxicity (% positive for DAPI take-up @ 50 μM): Table 1
Experimental: H2O2 treatment was performed as a control for cell death as measured by DAPI staining.
Briefly, HeLa MKYP cells were plated at 10,000 cells/well in 96 well plates along with compounds at various concentrations. Following 16 hrs of incubation, cells were treated with 1 uM FCCP/oligomycin for 6 hours, then analyzed via FACS for the presence of mitochondria in lysosomes (as determined by an emissions spectrum shift from the pH-sensitive mtKeima tag).

[3] = Table 3, read-out: Potency at 1 μM F/O toxin* (EC50 of mitophagy activation)
[4] = Table 3 Supplement A, as measured in Table 3, read-out: Potency (EC50 Max Mitophagy) (μM)*
[5] = Table 2, % activation of mitophagy at 1.6 μM treatment of the compound

| SMILES | EC50 (HeLa MKYP cells [1]; [3]) [µM] | EC50 (HeLa MKYP cells [1]; [4]) [µM] | Toxicity (% positive for DAPI takeup @ 50 μM) (HeLa MKYP cells [2]; Table 3) [%] | Toxicity (% positive for DAPI take-up at 50 μM)* (HeLa MKYP cells [2]; Table 3 Supplement A) [%] | further results |
| --- | --- | --- | --- | --- | --- |
| Clc1cccc(CNc2ncnc3nc[nH]c23)c1 [Compound 58] | 16 | 16 | 12.5 | 12.54 |  |
| CCCCNc1ncnc2[nH]c(-c3ccccc3)cc12 [Compound 6] |  |  |  |  | Potency at 1 μM F/O toxin (HeLa MKYP cells [1]): 52.0%; Toxicity (% positive for DAPI take-up @ 50 μM) (HeLa MKYP cells [2]): 90.0% |
| O=S1(=O)Cc2ccccc2C(Nc2ncnc3[nH]c(C(F)(F)F)cc23)C1 (stereo not shown) [Compound 79] | > 50 | > 25 | 13.2 | 13.18 |  |
| COc1cc(CNc2ncnc3[nH]c(C4CC4)nc23)ccn1 [Compound 35] | > 50 |  | 7.1 |  |  |
| c1ncc(CNc2ncnc3[nH]c(C4CC4)nc23)cn1 [Compound 36] | > 50 |  |  |  | Toxicity (% positive for DAPI takeup @ 50 μM) (HeLa MKYP cells [2]; human): 7.1% |
| FC(F)(F)c1cc2c(NCc3cnccn3)ncnc2[nH]1 [Compound 21] |  |  | 0.9 |  | activation at 6.3 µM (HeLa MKYP cells [1]; Table 3): 9.1% |
| FC(F)(F)c1cc2c(NCc3cncnc3)ncnc2[nH]1 [Compound 19] |  |  |  |  | activation at 6.3 µM (HeLa MKYP cells [1]; Table 3): 50.3%; Toxicity (% positive for DAPI takeup @ 50 μM) (HeLa MKYP cells [2]; human): 1.7% |
| CCCCNc1ncnc2[nH]c(-c3ccnn3C)cc12 [Compound 2] |  |  |  |  | Potency at 1 μM F/O toxin (HeLa MKYP cells [1]): 15.0%; Toxicity (% positive for DAPI take-up @ 50 μM) (HeLa MKYP cells [2]): 94.6% |
| FC(F)(F)c1cc2c(NC3CCOc4ccccc43)ncnc2[nH]1 (stereo not shown) [Compound 33] | 3.5 |  | 22.3 |  |  |
| c1ccc2c(c1)OCC[C@H]2Nc1ncnc2[nH]cnc12 [Compound 62] | > 50 | > 25 | 16.0 | 15.96 |  |
| c1coc(CNc2ncnc3[nH]c(C4CCC4)nc23)c1 [EP-0035338, 8-cyclobutyl-N-(2-furylmethyl)-9H-purin-6-amine] |  | > 25 |  | 3.04 |  |
| CCCCNc1ncnc2[nH]c(C(F)(F)F)cc12 [Compound 1] |  |  |  |  | Potency at 1 μM F/O toxin (HeLa MKYP cells [1]): 42.3%; Toxicity (% positive for DAPI take-up @ 50 μM) (HeLa MKYP cells [2]): 4.6% |
| FC(F)(F)c1cc2c(NC3(c4ccccc4)CC3)ncnc2[nH]1 [Compound 11] |  |  |  |  | activation at 1.6 µM (HeLa MKYP cells [1]; [5]): 20.8%; Toxicity (% positive for DAPI takeup @ 50 μM) (HeLa MKYP cells [2]; Table 2): 80.5% |
| CCCCNc1ncnc2[nH]c(C3CC3)nc12 [Compound 34886, N-butyl-8-cyclopropyl-9H-purin-6-amine] |  |  |  |  | EC50 (HeLa MKYP cells [1]; Table 4, read-out: Potency (EC50 Max Mitophagy)): 9.1 µM; Toxicity (% positive for DAPI takeup @ 50 μM) (HeLa MKYP cells [2]; Table 4): 9.1% |
| CC(Nc1ncnc2[nH]c(C(F)(F)F)cc12)c1ccccc1 (stereo not shown) [Compound 12] |  |  |  |  | activation at 1.6 µM (HeLa MKYP cells [1]; [5]): 88.4%; Toxicity (% positive for DAPI takeup @ 50 μM) (HeLa MKYP cells [2]; Table 2): 2.4% |
| OC[C@@H](Nc1ncnc2[nH]cnc12)c1ccccc1 [Compound 61] | > 50 | > 25 | 8.9 | 8.9 |  |
| c1ccc2c(c1)OCC2Nc1ncnc2[nH]cnc12 (stereo not shown) [Compound 53] | 6.1 | 6.11 | 21.0 | 20.95 |  |

| SMILES | EC50 (HeLa MKYP cells [1]; [3]) [µM] | EC50 (HeLa MKYP cells [1]; [4]) [µM] | Toxicity (% positive for DAPI takeup @ 50 μM) (HeLa MKYP cells [2]; Table 3) [%] | Toxicity (% positive for DAPI take-up at 50 μM)* (HeLa MKYP cells [2]; Table 3 Supplement A) [%] | further results |
| --- | --- | --- | --- | --- | --- |
| FC(F)(F)c1cc2c(N[C@@H]3COc4ccccc43)ncnc2[nH]1 [Compound 41] | 14.9 | 14.9 | 29.2 | 29.25 |  |
| COc1ccccc1CNc1ncnc2[nH]c(C(F)(F)F)cc12 [Compound 48] | 2 |  | 24.7 |  |  |
| CC(C)(Nc1ncnc2[nH]c(C(F)(F)F)cc12)c1ccccc1 [Compound 10] |  |  |  |  | activation at 1.6 µM (HeLa MKYP cells [1]; [5]): 17%; Toxicity (% positive for DAPI takeup @ 50 μM) (HeLa MKYP cells [2]; Table 2): 5.6% |
| C[C@H](Nc1ncnc2[nH]c(C(F)(F)F)cc12)c1ccccc1 [Compound 40] | 0.3 | 0.02 | 90.8 | 92.03 |  |
| c1ccc(C2(Nc3ncnc4[nH]cnc34)CC2)cc1 [Compound 72] | > 50 | > 25 | 13.4 | 13.38 |  |
| CCCCNc1ncnc2[nH]c(C3CCC3)nc12 [Compound 31] | > 50 |  | 6.1 |  |  |
| Fc1cccc(CNc2ncnc3[nH]c(C(F)(F)F)cc23)c1Cl [Compound 23] |  |  | 4.5 |  | activation at 6.3 µM (HeLa MKYP cells [1]; Table 3): 87.7% |
| Fc1cc(Cl)cc(CNc2ncnc3[nH]c(C(F)(F)F)cc23)c1 [Compound 24] |  |  | 4.8 |  | activation at 6.3 µM (HeLa MKYP cells [1]; Table 3): 51.2% |
| c1ccc2c(c1)OCC[C@H]2Nc1ncnc2[nH]c(C3CC3)cc12 [Compound 111] | 2 |  | 17.3 |  | EC50 (HeLa MKYP cells [1]; Table 3 Supplement B, read-out: Mitophagy EC50 (HeLa mKeima assay)): 1.98 µM; Max cell death at 25 uM compound, 1 uM FO (HeLa MKYP cells [2]; Table 3 Supplement B, 25 uM compound, 1 uM FO): 17.3%; Cell death at 25 μM (no FO) (HeLa MKYP cells [2]; Table 3 Supplement B, 25 μM, no FO): 7.26% |
| C[C@@H](Nc1ncnc2[nH]c(C3CC3)nc12)c1ccccc1 [Compound 47] | > 50 | > 25 | 12.3 | 12.33 |  |
| FC(F)(F)c1cc2c(NC3CCc4ccccc43)ncnc2[nH]1 (stereo not shown) [Compound 18] |  |  |  |  | Potency at 1 μM F/O toxin* (HeLa MKYP cells [1]; [5]): 14.3%; Toxicity (% positive for DAPI takeup @ 50 μM) (HeLa MKYP cells [2]; Table 2): 1.7% |
| FC(F)(F)c1cc2c(NCc3ccccc3)ncnc2[nH]1 [Compound 9] |  |  |  |  | activation at 1.6 µM (HeLa MKYP cells [1]; [5]): 35.1%; Toxicity (% positive for DAPI takeup @ 50 μM) (HeLa MKYP cells [2]; Table 2): 50.4% |
| FC(F)(F)c1cc2c(NC3CCc4ccccc43)ncnc2[nH]1 (stereo not shown) [Compound 17] |  |  |  |  | activation at 1.6 µM (HeLa MKYP cells [1]; [5]): 14.8%; Toxicity (% positive for DAPI takeup @ 50 μM) (HeLa MKYP cells [2]; Table 2): 2.3% |
| OC[C@H](Nc1ncnc2[nH]c(C(F)(F)F)cc12)c1ccccc1 [Compound 76] | 14.7 | 14.7 | 30.4 | 30.45 |  |
| c1ncc(CNc2ncnc3[nH]c(C4CC4)nc23)cn1 [EP-0036050, 8-cyclopropyl-N-(pyrimidin-5-ylmethyl)-9H-purin-6-amine] |  | > 25 |  |  | Toxicity (% positive for DAPI take-up at 50 μM)* (HeLa MKYP cells [2]; human): 7.06% |
| c1ccc2c(c1)CC[C@H]2Nc1ncnc2[nH]cnc12 [Compound 55] | > 50 | > 25 | 10.3 | 10.31 |  |
